The target of one assay is T1, Human Calpain 9/NS1 (Homo sapiens, UniProt O14815).
T1 sequence (O14815 1-690): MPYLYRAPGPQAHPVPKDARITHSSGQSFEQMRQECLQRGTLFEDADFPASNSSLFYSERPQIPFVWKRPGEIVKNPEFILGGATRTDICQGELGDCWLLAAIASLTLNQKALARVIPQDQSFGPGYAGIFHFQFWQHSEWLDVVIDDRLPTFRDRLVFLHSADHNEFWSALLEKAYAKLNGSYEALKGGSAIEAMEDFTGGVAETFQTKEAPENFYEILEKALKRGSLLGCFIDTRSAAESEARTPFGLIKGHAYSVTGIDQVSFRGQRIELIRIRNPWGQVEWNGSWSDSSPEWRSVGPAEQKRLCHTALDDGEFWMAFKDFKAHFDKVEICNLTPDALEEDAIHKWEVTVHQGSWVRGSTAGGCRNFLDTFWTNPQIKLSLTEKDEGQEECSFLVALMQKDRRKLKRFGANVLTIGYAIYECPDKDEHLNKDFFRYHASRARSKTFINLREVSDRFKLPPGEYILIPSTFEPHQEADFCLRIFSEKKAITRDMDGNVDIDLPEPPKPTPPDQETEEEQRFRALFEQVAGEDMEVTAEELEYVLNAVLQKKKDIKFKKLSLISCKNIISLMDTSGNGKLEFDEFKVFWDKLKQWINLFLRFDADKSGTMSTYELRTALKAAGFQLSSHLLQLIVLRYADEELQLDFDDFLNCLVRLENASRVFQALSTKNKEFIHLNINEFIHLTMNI
T1 sequence (P04632 1-268 partner): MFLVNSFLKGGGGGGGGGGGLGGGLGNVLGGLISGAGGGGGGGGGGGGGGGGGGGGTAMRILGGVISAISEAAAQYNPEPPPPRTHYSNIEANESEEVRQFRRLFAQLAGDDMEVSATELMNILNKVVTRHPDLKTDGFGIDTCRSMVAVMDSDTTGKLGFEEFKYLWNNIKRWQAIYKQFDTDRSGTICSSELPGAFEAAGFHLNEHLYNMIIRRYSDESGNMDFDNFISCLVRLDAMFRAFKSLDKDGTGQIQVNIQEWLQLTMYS
Description: Calpain inhibition continuous fluorescence (FRET) assay, Human Calpain 9/NS1. Type of assay: biochemical. Particulars: read-out: Human Calpain 9/NS1 IC50. The essentials:
(§1)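 Inhibitors were preincubated with calpain in 50 mM Tris pH 7.5, 100 mM NaCl, 1 mM DTT at 25C. Reactions were started with 5-FAM/QXL 520 FRET peptide substrate plus CaCl2 and read at 490/520 nm for 10 min. IC50s came from 4-parameter fits of slope rates (1-5 min).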

For assay [1], the system named is Calpain activity in SH-SY5Y cells. Nature of the assay: SH-SY5Y + AMC fluorescence assay (Suc-LLVY-AMC substrate). Type of assay: cell-based.
The target in the next assay is T2, Human Calpain 1/NS1 (Homo sapiens, UniProt P07384).
T2 sequence (P07384 1-714): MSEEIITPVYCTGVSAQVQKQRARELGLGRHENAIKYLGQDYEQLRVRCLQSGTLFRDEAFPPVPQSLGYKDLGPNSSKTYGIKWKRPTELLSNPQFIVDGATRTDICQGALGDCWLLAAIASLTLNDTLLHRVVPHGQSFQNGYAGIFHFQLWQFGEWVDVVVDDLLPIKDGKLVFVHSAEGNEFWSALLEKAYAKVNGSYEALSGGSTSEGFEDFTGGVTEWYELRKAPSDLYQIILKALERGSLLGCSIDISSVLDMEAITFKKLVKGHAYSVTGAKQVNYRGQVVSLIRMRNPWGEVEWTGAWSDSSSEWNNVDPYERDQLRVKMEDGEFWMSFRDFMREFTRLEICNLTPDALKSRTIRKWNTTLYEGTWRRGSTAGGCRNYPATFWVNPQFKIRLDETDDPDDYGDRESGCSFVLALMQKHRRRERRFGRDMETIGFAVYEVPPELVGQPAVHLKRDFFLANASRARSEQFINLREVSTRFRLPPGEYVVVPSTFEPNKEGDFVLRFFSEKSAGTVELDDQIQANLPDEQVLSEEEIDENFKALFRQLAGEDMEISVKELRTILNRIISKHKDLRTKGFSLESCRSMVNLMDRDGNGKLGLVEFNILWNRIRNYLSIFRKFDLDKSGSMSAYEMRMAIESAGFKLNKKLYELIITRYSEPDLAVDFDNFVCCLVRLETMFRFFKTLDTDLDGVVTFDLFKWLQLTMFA
T2 sequence (P04632 1-268 partner): T1 sequence (P04632 1-268 partner)
Nature of the assay: Calpain inhibition continuous fluorescence (FRET) assay, Human Calpain 1/NS1. The settings on record: read-out: Human Calpain 1/NS1 IC50. The format is biochemical. The gist of the method:
as §1

Assay [2] concerns Calpain activity in SH-SY5Y cells (SBDP-150). Nature of the assay: SH-SY5Y Spectrin western blot assay (SBDP-150 breakdown product, A23187-induced). The format is cell-based. Particulars: Homo sapiens, read-out: SH-SY5Y Spectrin IC50.
The target of the next assay is T3, Human Calpain 2/NS1 (Homo sapiens, UniProt P17655).
T3 sequence (P17655 1-700): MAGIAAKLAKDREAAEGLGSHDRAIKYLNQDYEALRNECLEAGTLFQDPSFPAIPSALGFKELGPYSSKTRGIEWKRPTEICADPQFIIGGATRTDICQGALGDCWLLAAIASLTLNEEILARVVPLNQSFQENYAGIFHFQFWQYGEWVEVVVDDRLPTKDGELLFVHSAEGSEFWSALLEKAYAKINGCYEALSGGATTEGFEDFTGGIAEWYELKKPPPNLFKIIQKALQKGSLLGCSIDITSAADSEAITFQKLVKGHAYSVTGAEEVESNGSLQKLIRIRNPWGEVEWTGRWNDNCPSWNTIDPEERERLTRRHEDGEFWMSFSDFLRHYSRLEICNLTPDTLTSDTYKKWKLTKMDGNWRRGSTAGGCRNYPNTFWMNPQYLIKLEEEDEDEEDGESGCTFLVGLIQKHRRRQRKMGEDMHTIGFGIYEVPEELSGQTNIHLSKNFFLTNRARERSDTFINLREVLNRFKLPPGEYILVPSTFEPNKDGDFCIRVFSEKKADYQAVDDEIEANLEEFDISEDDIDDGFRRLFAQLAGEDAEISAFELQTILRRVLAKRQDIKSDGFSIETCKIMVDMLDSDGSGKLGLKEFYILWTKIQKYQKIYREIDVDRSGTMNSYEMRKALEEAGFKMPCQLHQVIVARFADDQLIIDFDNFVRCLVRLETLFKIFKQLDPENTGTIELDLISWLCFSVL
T3 sequence (P04632 1-268 partner): T1 sequence (P04632 1-268 partner)
Description: Calpain inhibition continuous fluorescence (FRET) assay, Human Calpain 2/NS1. The format is biochemical. Particulars: read-out: Human Calpain 2/NS1 IC50. The gist of the method:
as §1

Where [3] appears, read: Column E, read-out: SH-SY5Y + AMC IC50.
Setting [4] is: Column D, SH-SY5Y cells, A23187-induced SBDP-150.
The mark [5] stands for this setting: SH-SY5Y cells, A23187-induced SBDP-150, western blot.

The structures appear in SMILES notation. Read-outs that look alike come from different tables or passages of the source.

On to `Cc1cc(C(=O)N[C@H](C=O)Cc2ccccc2)n(-c2ccncn2)n1` [Compound 279, (S)-3-methyl-N-(1-oxo-3-phenylpropan-2-yl)-1-(pyrimidin-4-yl)-1H-pyrazole-5-carboxamide], for which the IC50 at Human Calpain 9/NS1 (Column C) was 3 to 10 µM; in assay [1] (setting [3]), below 10 µM; at Human Calpain 1/NS1 (Column A), below 3 µM; in assay [2] (setting [4]), 10 to 25 µM; on Human Calpain 2/NS1 (Column B), below 3 µM.

On to `Cc1c(C(=O)NC(Cc2ccccc2)C(=O)C(N)=O)c(-c2ccccc2)nn1C` (centres unmarked) [Compound 583], for which the IC50 is below 3 µM on Human Calpain 9/NS1; above 25 µM in assay [1] (read-out: SH-SY5Y + AMC IC50); below 3 µM on Human Calpain 1/NS1; above 25 µM in assay [2] (setting [5]); below 3 µM at Human Calpain 2/NS1.

Take `NC(=O)C(=O)C(Cc1ccccc1)NC(=O)c1cnoc1-c1ccccc1` (centres unmarked) [Compound 531, N-(4-amino-3,4-dioxo-1-phenylbutan-2-yl)-5-phenylisoxazole-4-carboxamide]: the IC50 on Human Calpain 9/NS1 is below 3 µM; in assay [1] (read-out: SH-SY5Y + AMC IC50) it was above 25 µM; at Human Calpain 1/NS1, below 3 µM; in assay [2] (setting [5]) it was 10 to 25 µM; on Human Calpain 2/NS1, below 3 µM.

With `CN(C)C(=O)CNC(=O)C(=O)[C@H](Cc1ccccc1)NC(=O)c1cn(C)nc1-c1ccccc1` [Compound 337, (S)—N-(4-((2-(dimethylamino)-2-oxoethyl)amino)-3,4-dioxo-1-phenylbutan-2-yl)-1-methyl-3-phenyl-1H-pyrazole-4-carboxamide], the IC50 was below 3 µM on Human Calpain 9/NS1; below 10 µM in assay [1] (read-out: SH-SY5Y + AMC IC50); below 3 µM on Human Calpain 1/NS1; below 10 µM in assay [2] (setting [5]); below 3 µM at Human Calpain 2/NS1.

On to `NC(=O)C(=O)C(Cc1ccccc1)NC(=O)c1nsnc1-c1cccc(F)c1` (centres unmarked) [Compound 321, N-(4-amino-3,4-dioxo-1-phenylbutan-2-yl)-4-(3-fluorophenyl)-1,2,5-thiadiazole-3-carboxamide], for which the IC50 at Human Calpain 9/NS1 was below 3 µM; in assay [1] (read-out: SH-SY5Y + AMC IC50), above 25 µM; on Human Calpain 1/NS1, below 3 µM; in assay [2] (setting [5]), below 10 µM; at Human Calpain 2/NS1, below 3 µM.

Take `Cc1cc(C(=O)N[C@@H](Cc2ccccc2)C(=O)C(N)=O)n(-c2cnccn2)n1` [Compound 63, (S)—N-(4-amino-3,4-dioxo-1-phenylbutan-2-yl)-3-methyl-1-(pyrazin-2-yl)-1H-pyrazole-5-carboxamide]: the IC50 was below 3 µM at Human Calpain 9/NS1 (Column C); below 10 µM in assay [1] (setting [3]); below 3 µM at Human Calpain 1/NS1 (Column A); below 10 µM in assay [2] (setting [4]); below 3 µM on Human Calpain 2/NS1 (Column B).

`Cc1cc(C(=O)N[C@@H](Cc2ccccc2)C(=O)C(N)=O)n(-c2ccc(C#N)cn2)n1` [Compound 208]: the IC50 at Human Calpain 9/NS1 (Column C) is below 3 µM; in assay [1] (setting [3]) it was above 25 µM; on Human Calpain 1/NS1 (Column A), below 3 µM; in assay [2] (setting [4]), below 10 µM; on Human Calpain 2/NS1 (Column B) it was below 3 µM.

As for `Cc1nc(-c2ccccc2)c(C(=O)N[C@@H](Cc2ccccc2)C(O)C(N)=O)o1` (stereo partly drawn) [Compound 360, N-((2S)-4-amino-3-hydroxy-4-oxo-1-phenylbutan-2-yl)-2-methyl-4-phenyloxazole-5-carboxamide], the IC50 on Human Calpain 9/NS1 is above 10 µM; in assay [1] (read-out: SH-SY5Y + AMC IC50), above 25 µM; at Human Calpain 1/NS1 it was above 10 µM; in assay [2] (setting [5]), above 25 µM; at Human Calpain 2/NS1, above 10 µM.

As to `CC(C)n1cc(C(=O)NC(Cc2ccccc2)C(=O)C(N)=O)c(-c2ccccc2F)n1` (centres unmarked) [Compound 472, N-(4-amino-3,4-dioxo-1-phenylbutan-2-yl)-3-(2-fluorophenyl)-1-isopropyl-1H-pyrazole-4-carboxamide], the IC50 at Human Calpain 9/NS1 is below 3 µM; in assay [1] (read-out: SH-SY5Y + AMC IC50) it was below 10 µM; on Human Calpain 1/NS1, below 3 µM; in assay [2] (setting [5]) it was 10 to 25 µM; on Human Calpain 2/NS1 it was below 3 µM.

Regarding `Cc1cc(C(=O)N[C@@H](Cc2ccccc2)C(=O)C(N)=O)n(-c2cccc(CNCc3ccccc3)c2)n1` [Compound 146, (S)—N-(4-amino-3,4-dioxo-1-phenylbutan-2-yl)-1-(3-((benzylamino)methyl)phenyl)-3-methyl-1H-pyrazole-5-carboxamide], the IC50 is below 3 µM at Human Calpain 9/NS1 (Column C); below 10 µM in assay [1] (setting [3]); below 3 µM at Human Calpain 1/NS1 (Column A); 10 to 25 µM in assay [2] (setting [4]); below 3 µM on Human Calpain 2/NS1 (Column B).

Consider `CCn1cc(C(=O)NC(Cc2ccccc2)C(=O)C(N)=O)c(-c2ccccc2F)n1` (centres unmarked) [Compound 469, N-(4-amino-3,4-dioxo-1-phenylbutan-2-yl)-1-ethyl-3-(2-fluorophenyl)-1H-pyrazole-4-carboxamide], for which the IC50 is below 3 µM on Human Calpain 9/NS1; below 10 µM in assay [1] (read-out: SH-SY5Y + AMC IC50); below 3 µM at Human Calpain 1/NS1; 10 to 25 µM in assay [2] (setting [5]); below 3 µM at Human Calpain 2/NS1.

In the case of `CC(=O)NCc1ccc(-n2nc(C)cc2C(=O)N[C@@H](Cc2ccccc2)C(=O)C(N)=O)cc1` [Compound 157, (S)-1-(4-(acetamidomethyl)phenyl)-N-(4-amino-3,4-dioxo-1-phenylbutan-2-yl)-3-methyl-1H-pyrazole-5-carboxamide], the IC50 at Human Calpain 9/NS1 (Column C) was below 3 µM; in assay [1] (read-out: SH-SY5Y + AMC IC50, Column E), above 25 µM; on Human Calpain 1/NS1 (Column A) it was below 3 µM; in assay [2] (SH-SY5Y), above 25 µM; at Human Calpain 2/NS1 (Column B) it was below 3 µM.

On to `Cc1cccc(-c2nsnc2C(=O)NC(Cc2ccccc2)C(=O)C(N)=O)c1` (centres unmarked) [Compound 325, N-(4-amino-3,4-dioxo-1-phenylbutan-2-yl)-4-(M-tolyl)-1,2,5-thiadiazole-3-carboxamide], for which the IC50 at Human Calpain 9/NS1 is below 3 µM; in assay [1] (read-out: SH-SY5Y + AMC IC50) it was above 25 µM; at Human Calpain 1/NS1, below 3 µM; in assay [2] (setting [5]) it was above 25 µM; on Human Calpain 2/NS1 it was below 3 µM.

These data come from patent US11339130B1 (Blade Therapeutics, Inc., priority 2016, dated 2022).
